# Values of other authors in the CATMoS acute toxicity set (Mansouri et al. 2021).
# Several values for one entry are separate records, joined by “and”; a condition that tells them apart may be missing. Equal values may be shown once.
# Assay: rat acute oral toxicity
# Settings: in vivo
row,SMILES,LD50
1,CCC(=O)O[C@]1(c2ccccc2)CCN(C)C[C@@H]1C,90 mg/kg
2,CCNCc1cc([N+](=O)[O-])ccc1O,1010 mg/kg
3,COc1ccccc1NC(=O)C(N=Nc1ccc(-c2ccc(N=NC(C(C)=O)C(=O)Nc3ccccc3OC)c(Cl)c2)cc1Cl)C(C)=O (configuration not stated),2230 mg/kg
4,O=C(OCCOc1ccc(Cl)cc1Cl)c1ccccc1,1700 mg/kg
5,CCOP(=S)(OCC)SCSCc1ccccc1,6 mg/kg
6,COP(=S)(OC)SCCSc1ccc(Cl)cc1,100 mg/kg
7,OC1(c2ccc(F)cc2)c2ccccc2C2=NCCN21 (configuration not stated),200 mg/kg
8,CCCOC(C1=NCCN1)c1ccccc1 (configuration not stated),350 mg/kg
9,CCC(C)c1cc([N+](=O)[O-])cc([N+](=O)[O-])c1OC(=O)OC(C)C (configuration not stated),59 mg/kg
10,CC(C)NCC(O)COC(C)c1ccccc1 (configuration not stated),540 mg/kg
11,C=CCN1CC[C@]23CCCC[C@H]2[C@H]1Cc1ccc(O)cc13,949 mg/kg
12,CC(CCl)N(C)C (configuration not stated),166 mg/kg
13,CCOC(=O)Nc1ccc2c(c1)N(C(=O)CCN1CCOCC1)c1ccccc1CC2,623 mg/kg
14,C=C1C(=CC=C2CCCC3(C)C2CCC3C(C)CCCC(C)C)CC(O)CC1O (configuration not stated),340 mg/kg
15,O=C(CI)NC(=O)CI,650 mg/kg
16,O=C(O)CCC(=O)c1ccc(C2CCCCC2)c(Cl)c1,120 mg/kg and 300 mg/kg
17,O=C(O)c1cc(S(=O)(=O)O)ccc1O,1850 mg/kg
18,O=NN1CCCCCCC1,283 mg/kg
19,CCCCN(CCCC)CCCC,114 mg/kg
20,c1ccc(CC2CCNCC2)cc1,540 mg/kg
21,O=C1c2ccccc2C(=O)C1c1c(Cl)cccc1Cl,470 mg/kg
22,CCOP(=O)(SC(C)CC)N1CCSC1=O (configuration not stated),57 mg/kg
23,CC(C)(C)C(O)C(=Cc1ccc(Cl)cc1Cl)n1cncn1 (configuration not stated),474 mg/kg
24,Clc1ccc(OCOc2ccc(Cl)cc2)cc1,5800 mg/kg

row,SMILES,LD50
1,CC(C)(C)C(=O)C(Cl)Cl,1300 mg/kg
2,CC1(CO)CN(c2ccccc2)NC1=O (configuration not stated),566 mg/kg
3,COc1cc(-c2ccc(N=Nc3c(O)ccc4ccccc34)c(OC)c2)ccc1N=Nc1ccc2c(S(=O)O)cc(S(=O)(=O)O)c(N)c2c1,6700 mg/kg
4,Cc1c(Cl)c([N+](=O)[O-])c2nc(C(F)(F)F)[nH]c2c1[N+](=O)[O-],105 mg/kg
5,CC(=O)C(C)(C)C,610 mg/kg
6,CCS(=O)CCOP(=O)(OC)OC=C(Cl)Cl (configuration not stated),110 mg/kg
7,CCCCOC(CBr)c1ccc(C2CCCC2)cc1 (configuration not stated),250 mg/kg
8,O=C(O)CCSCCC(=O)O,3000 mg/kg
9,COP(=S)(OC)Oc1cc(C)c(Cl)cc1C(C)C,500 mg/kg
10,BrC/C=C/CBr,62 mg/kg
11,O=P(OCCCl)(OCCCl)OCC(CO)(CO)COP(=O)(OCCCl)OCCCl,4920 mg/kg
12,CCOC(C1=NCCCN1)c1cccc(Cl)c1 (configuration not stated),695 mg/kg
13,CCOC(=O)C=Cc1ccccc1,4000 mg/kg
14,COc1ccc2c(c1)c(CC(=O)OCOC(=O)c1cccc(C)c1)c(C)n2C(=O)c1ccc(Cl)cc1,106 mg/kg
15,CC(CCN(C)C)N(C)C (configuration not stated),750 mg/kg
16,CNCCON=C1c2ccccc2CCc2ccccc21,860 mg/kg
17,COP(=S)(OC)Oc1ccc([N+](=O)[O-])c(C(F)(F)F)c1,250 mg/kg
18,CCCCn1c(=O)n(CCC)c(=O)c2c(NC)n(C(=O)OC)nc21,2380 mg/kg
19,C=CCc1c(O)c(CN2CCN(CCO)CC2)cc2c(C)cc(=O)oc12,3160 mg/kg
20,O=C(O)c1cc(N=Nc2ccc(S(=O)(=O)O)cc2)ccc1O,14000 mg/kg
21,O=C(Nc1c(Cl)c(Cl)c(Cl)c2nc(C(F)(F)F)[nH]c12)c1ccccc1,100 mg/kg
22,S=C1NCCC(COc2ccccc2)O1 (configuration not stated),2200 mg/kg
23,CCCCOC(=O)c1ccccc1C(=O)OCc1ccccc1,2330 mg/kg
24,C(=Nc1ccc(N=Cc2ccco2)cc1)c1ccco1,1220 mg/kg

row,SMILES,LD50
1,O=c1c2ccccc2c2ccc3c4c(ccc1c24)c1ccc2c(=O)c4ccccc4c4nn3c1c24,13900 mg/kg
2,CNN,58 mg/kg
3,COc1cc(C)nc(-n2nc(C)cc2OC)n1,445 mg/kg
4,CN(SSN(C)C(=O)ON=C1CSCCS1)C(=O)ON=C1CSCCS1,160 mg/kg
5,Clc1ccc(OCC2=NCCN2)cc1Cl,100 mg/kg
6,CCCCC(CC)COC(=O)c1ccccc1C(=O)OCc1ccccc1 (configuration not stated),60000 mg/kg
7,c1ccc(-c2ccc(C(c3ccccc3)n3ccnc3)cc2)cc1 (configuration not stated),1460 mg/kg
8,CCS(=O)(=O)Oc1ccc2c(c1)C(C)(C)CO2,2030 mg/kg
9,Cc1nnc(NS(=O)(=O)c2ccc(N)cc2)s1,3500 mg/kg
10,CSC(C)(C)C=NOC(=O)N(C)SN(C)Cc1ccccc1,9.4 mg/kg
11,CC(C)C12CCC(C)(CC1)O2,3100 mg/kg
12,OC(CCl)CNCCNCC(O)CCl (configuration not stated),1000 mg/kg
13,O=C(CF)Nc1ccc(F)cc1,2 mg/kg
14,CC(C(=O)O)c1ccc(Oc2nccs2)cc1 (configuration not stated),135 mg/kg
15,OCCOCc1ccccc1,1190 mg/kg
16,Cc1ncc(C[n+]2csc(CCO)c2C)c(N)n1,3710 mg/kg
17,CN(C)CCC=C1c2ccccc2CS(=O)c2sccc21 (configuration not stated),319 mg/kg
18,NCCNc1ccc(N)cc1,190 mg/kg
19,CC(=O)SCCCCCCSC(C)=O,504 mg/kg
20,COc1ccc2cc(C(C)C(=O)OCCOCCO)ccc2c1 (configuration not stated),638 mg/kg
21,CN(C)N(C)N=O,95 mg/kg
22,CC(C)COCC(CN(Cc1ccccc1)c1ccccc1)N1CCCC1 (configuration not stated),6850 mg/kg
23,CSP(SC)SC,105 mg/kg
24,CN1CCN(CCC=C2c3ccccc3Sc3ccc(S(=O)(=O)N(C)C)cc32)CC1,720 mg/kg
